Our source for the IC50 and melting point values is patent US6673793B2, “Oxazinoquinolones useful for the treatment of viral infections” (Pharmacia & Upjohn Co., priority 2000, dated 2004).

The structures appear in SMILES notation. pIC50: −log10 of the molar value.

For one data set, the target named is T1, CMV polymerase (Human cytomegalovirus, UniProt P08546).
T1 construct: made in house; host or cells: recombinant baculovirus-infected SF-9 cells
In words: HCMV polymerase assay, scintillation proximity assay (SPA), modified version. Format: biochemical. To be noted: modified HCMV polymerase SPA assay: compounds diluted in 100% DMSO, 4.5 mM DTT in polymerase buffer, different lot of CMV polymerase; read-out: CMV polymerase IC50. An outline of the steps:
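Baculovirus/SF-9-expressed HCMV polymerase in SPA with 90 nM ^3H-dTTP and 6 nM biotinylated poly(dA)-oligo(dT), pH 7.5 HEPES/KCl/MgCl2/BSA, with or without 2 mM CHAPS. Runs 30 min at 25 C. or 37 C., EDTA stop, streptavidin-SPA beads counted; IC50 by linear regression. Modified version: compounds diluted in 100% DMSO rather than 50%, plus 4.5 mM DTT.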
Background: SPA uses beads or plates that emit light when radiolabelled molecules are held near them.

T1 sequence (P08546 whole entry): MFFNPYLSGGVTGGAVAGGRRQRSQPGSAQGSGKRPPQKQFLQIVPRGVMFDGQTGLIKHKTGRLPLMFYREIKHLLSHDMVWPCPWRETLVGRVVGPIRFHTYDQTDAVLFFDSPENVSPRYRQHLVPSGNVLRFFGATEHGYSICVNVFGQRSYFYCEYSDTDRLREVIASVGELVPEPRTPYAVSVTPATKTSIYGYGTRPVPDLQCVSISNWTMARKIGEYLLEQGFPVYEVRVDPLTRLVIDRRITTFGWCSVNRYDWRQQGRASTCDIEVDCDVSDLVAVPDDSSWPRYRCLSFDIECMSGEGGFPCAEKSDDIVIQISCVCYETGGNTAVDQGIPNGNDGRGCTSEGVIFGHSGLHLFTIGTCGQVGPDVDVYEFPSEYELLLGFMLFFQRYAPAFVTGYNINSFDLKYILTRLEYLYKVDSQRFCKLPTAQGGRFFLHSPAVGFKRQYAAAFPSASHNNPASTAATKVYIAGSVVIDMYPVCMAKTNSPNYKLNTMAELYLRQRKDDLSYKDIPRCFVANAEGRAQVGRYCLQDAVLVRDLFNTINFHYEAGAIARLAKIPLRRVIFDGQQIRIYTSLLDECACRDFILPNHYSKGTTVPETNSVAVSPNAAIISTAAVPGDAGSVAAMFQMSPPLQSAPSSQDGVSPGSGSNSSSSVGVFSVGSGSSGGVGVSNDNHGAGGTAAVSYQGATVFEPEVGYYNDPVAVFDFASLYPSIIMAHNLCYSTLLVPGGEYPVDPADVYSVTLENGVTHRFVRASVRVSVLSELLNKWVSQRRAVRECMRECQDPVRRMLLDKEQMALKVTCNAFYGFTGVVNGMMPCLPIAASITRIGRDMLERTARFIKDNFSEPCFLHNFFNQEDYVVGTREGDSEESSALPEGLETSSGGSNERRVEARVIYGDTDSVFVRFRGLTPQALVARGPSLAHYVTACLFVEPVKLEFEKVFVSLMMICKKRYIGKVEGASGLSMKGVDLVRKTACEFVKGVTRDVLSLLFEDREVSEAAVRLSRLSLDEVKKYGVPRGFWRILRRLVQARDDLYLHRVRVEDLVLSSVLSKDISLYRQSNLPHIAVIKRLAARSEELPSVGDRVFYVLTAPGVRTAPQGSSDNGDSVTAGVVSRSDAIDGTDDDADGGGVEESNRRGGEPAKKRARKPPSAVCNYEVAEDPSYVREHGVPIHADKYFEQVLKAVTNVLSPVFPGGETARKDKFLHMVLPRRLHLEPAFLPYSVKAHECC

As a reminder, the pIC50 is the negative decadic logarithm of the IC50, by convention in mol/L. As usually defined, the melting point is the temperature, or range, at which the solid turns liquid. Turning to `O=C(NCc1ccc(Cl)cc1)c1cn2c3c(cc(CN4CCOCC4)cc3c1=O)OC(CNCc1ccncc1)C2` (stereo not drawn) [Example 12, N-(4-Chlorobenzyl)-9-(4-morpholinylmethyl)-7-oxo-2-{[(4-pyridinylmethyl)amino]methyl}-2,3-dihydro-7H-[1,4]oxazino[2,3,4-ij]quinoline-6-carboxamide], the melting point was 164 to 167 °C. In addition, the pIC50 at CMV polymerase was 6.23.

The compound `CC(=O)OCC1Cn2cc(C(=O)NCc3ccc(Cl)cc3)c(=O)c3cc(CN4CCOCC4)cc(c32)O1` (stereo not drawn) [Example 24, [6-{[(4-Chlorobenzyl)amino]carbonyl}-9-(4-morpholinylmethyl)-7-oxo-2,3-dihydro-7H-[1,4]oxazino[2,3,4-ij]quinolin-2-yl]methyl acetate] had a melting point of 215 to 218 °C. The pIC50 on CMV polymerase is 6.13.

For `O=C(NCc1ccc(Cl)cc1)c1cn2c3c(cc(CN4CCOCC4)cc3c1=O)OC(c1ccsc1)C2` (stereo not drawn) [Example 45, N-(4-Chlorobenzyl)-9-(morpholin-4-ylmethyl)-7-oxo-2-thien-3-yl-2,3-dihydro-7H-[1,4]oxazino[2,3,4-ij]quinoline-6-carboxamide], the melting point is 241 to 245 °C (dec.). The pIC50 on CMV polymerase is 6.39.

Turning to `CN(C)CC1Cn2cc(C(=O)NCc3ccc(Cl)cc3)c(=O)c3cc(CN4CCOCC4)cc(c32)O1` (stereo not drawn) [Example 3, N-(4-Chlorobenzyl)-2-[(dimethylamino)methyl]-9-(4-morpholinylmethyl)-7-oxo-2,3-dihydro-7H-[1,4]oxazino[2,3,4-ij]quinoline-6-carboxamide], the melting point lay in the range of 168 to 170 °C. Further, the negative-log IC50 (pIC50) on CMV polymerase is 6.12.

In the case of `O=C(NCc1ccc(Cl)cc1)c1cn2c3c(cc(CN4CCOCC4)cc3c1=O)OC1(CCNCC1)C2` [Example 48, N-[(4-Chlorophenyl)methyl]-9′-(4-morpholinylmethyl)-7′-oxospiro[piperidine-4,2′(3′H)-[7H]pyrido[1,2,3-de][1,4]benzoxazine]-6′-carboxamide], the melting point is 246 to 250 °C (dec.). Besides, the pIC50 on CMV polymerase is 5.67.

Turning to `Cn1ccnc1C1Cn2cc(C(=O)NCc3ccc(Cl)cc3)c(=O)c3cc(CN4CCOCC4)cc(c32)O1` (stereo not drawn) [Example 59, N-(4-Chlorobenzyl)-2-(1-methyl-1H-imidazol-2-yl)-9-(morpholin-4-ylmethyl)-7-oxo-2,3-dihydro-7H-[1,4]oxazino[2,3,4-ij]quinoline-6-carboxamide], the melting point is over 260 °C. Also, the pIC50 at CMV polymerase was 6.32.

Regarding `COCOCc1ccccc1C1Cn2cc(C(=O)NCc3ccc(Cl)cc3)c(=O)c3cc(CN4CCOCC4)cc(c32)O1` (stereo not drawn) [Example 66, N-(4-Chlorobenzyl)-2-{2-[(methoxymethoxy)methyl]phenyl}-9-(morpholin-4-ylmethyl)-7-oxo-2,3-dihydro-7H-[1,4]oxazino[2,3,4-ij]quinoline-6-carboxamide], the melting point lay within 202.5 to 204.5 °C. For the same compound, at CMV polymerase, the negative logarithm of the IC50 (pIC50) is 6.23.

Consider `CN1CCC2(CC1)Cn1cc(C(=O)NCc3ccc(Cl)cc3)c(=O)c3cc(CN4CCOCC4)cc(c31)O2` [Example 49, N-[(4-Chlorophenyl)methyl]-1-methyl-9′-(4-morpholinylmethyl)-7′-oxospiro[piperidine-4,2′(3′H)-[7H]pyrido[1,2,3-de][1,4]benzoxazine]-6′-carboxamide], for which the melting point is 234 to 237 °C (dec.). Moreover, the negative logarithm of the IC50 (pIC50) on CMV polymerase is 5.63.

On to `COCOCc1ccc(C2Cn3cc(C(=O)NCc4ccc(Cl)cc4)c(=O)c4cc(CN5CCOCC5)cc(c43)O2)cc1` (stereo not drawn) [Example 67, N-(4-Chlorobenzyl)-2-{4-[(methoxymethoxy)methyl]phenyl}-9-(morpholin-4-ylmethyl)-7-oxo-2,3-dihydro-7H-[1,4]oxazino[2,3,4-ij]quinoline-6-carboxamide], for which the melting point lay within 236 to 239 °C. The pIC50 on CMV polymerase was 5.77.
